The target in the assay is σ1 receptor and μ-opioid receptor. The assay can be described thus: Human σ1 receptor and human μ-opioid receptor radioligand assays (dual binding scale). Set-up: key to μ and σ1 dual binding: +: Both Ki-μ and Ki-σ1>=500 nM; ++: One Ki <500 nM while the other Ki is >=500 nM; +++: Both Ki-μ and Ki-σ1 <500 nM; ++++: Both Ki-μ and Ki-σ1 <100 nM. The note with it: joint class for both Ki; σ1: [3H](+)-pentazocine, transfected HEK-293 membranes; μ: [3H]-DAMGO, transfected CHO-K1 cell membranes. As to the method:
To investigate binding properties of test compounds to human […] receptor, transfected HEK-293 membranes and [^3H](+)-pentazocine (Perkin Elmer, NET-1056), as the radioligand, were used. The assay was carried out with 7 μg of membrane suspension, 5 nM of [^3H](+)-pentazocine in either absence or presence of either buffer or 10 μM Haloperidol for total and non-specific binding, respectively. Binding buffer contained Tris-HCl 50 mM at pH 8. Plates were incubated at 37° C. for 120 minutes. After the incubation period, the reaction mix was then transferred to MultiScreen HTS, FC plates (Millipore), filtered and plates were washed 3 times with ice-cold 10 mM Tris-HCL (pH7.4). Filters were dried and counted at approximately 40% efficiency in a MicroBeta scintillation counter (Perkin-Elmer) using EcoScint liquid scintillation cocktail
To investigate binding properties of test compounds to human μ-opioid receptor, transfected CHO-K1 cell membranes and [^3H]-DAMGO (Perkin Elmer, ES-542-C), as the radioligand, were used. The assay was carried out with 20 μg of membrane suspension, 1 nM of [^3H]-DAMGO in either absence or presence of either buffer or 10 μM Naloxone for total and non-specific binding, respectively. Binding buffer contained Tris-HCl 50 mM, MgCl2 5 mM at pH 7.4. Plates were incubated at 27° C. for 60 minutes. After the incubation period, the reaction mix was then transferred to MultiScreen HTS, FC plates (Millipore), filtered and plates were washed 3 times with ice-cold 10 mM Tris-HCL (pH 7.4). Filters were dried and counted at approximately 40% efficiency in a MicroBeta scintillation counter (Perkin-Elmer) using EcoScint liquid scintillation cocktail.

The results in this text go back to patent US20190031615A1, “3-ETHYL-3-PHENYLAZEPANE DERIVATIVES HAVING MULTIMODAL ACTIVITY AGAINST PAIN” (LABORATORIOS DEL DR. ESTEVE S.A., priority 2016, published 2019).

Usually Ki stands for a measure of affinity in units of concentration, obtained from inhibition or displacement. In turn, `CCOCCN1CCCCC(CC)(c2cccc(OC)c2)C1` (stereo not shown) [Example 5, 1-(2-ethoxyethyl)-3-ethyl-3-(3-methoxyphenyl)azepane] showed a Ki of no less than 500 nM.

As to `CCC1(c2cccc(O)c2)CCCCN(CC(=O)N2CCCCC2)C1` (stereo not shown) [Example 13, 2-(3-ethyl-3-(3-hydroxyphenyl)azepan-1-yl)-1-(piperidin-1-yl)ethanone], the “μ and σ1 dual binding” value is “++”.

`CCC1(c2cccc(OC)c2)CCCCN(CCN2CCCCC2)C1` (stereo not shown) [Example 4, 3-ethyl-3-(3-methoxyphenyl)-1-(2-(piperidin-1-yl)ethyl)azepane] returned a Ki of no less than 500 nM.

In the case of `CCOCCN1CCCCC(CC)(c2cccc(O)c2)C1` (stereo not shown) [Example 11, 3-(1-(2-Ethoxyethyl)-3-ethylazepan-3-yl)phenol], the Ki was less than 100 nM.

Turning to `CCC1(c2cccc(O)c2)CCCCN(CCOc2cccnc2)C1` (stereo not shown) [Example 14, 3-(3-ethyl-1-(2-(pyridin-3-yloxy)ethyl)azepan-3-yl)phenol], the “μ and σ1 dual binding” value is on record as “++”.

Regarding `CCC1(c2cccc(O)c2)CCCCN(CCOC)C1` (stereo not shown) [Example 17, 3-(3-ethyl-1-(2-methoxyethyl)azepan-3-yl)phenol], the “μ and σ1 dual binding” value is given as “++”.

`CCC1(c2cccc(O)c2)CCCCN(CCN2CCCCC2)C1` (stereo not shown) [Example 9, 3-(3-ethyl-1-(2-(piperidin-1-yl)ethyl)azepan-3-yl)phenol] showed a Ki of less than 500 nM.

Take `CCC1(c2cccc(O)c2)CCCCN(CCOC(C)C)C1` (stereo not shown) [Example 12, 3-(3-ethyl-1-(2-isopropoxyethyl)azepan-3-yl)phenol]: the Ki was less than 500 nM.

As for `CCC1(c2cccc(OC)c2)CCCCN(CCN2CCOCC2)C1` (stereo not shown) [Example 3, 4-(2-(3-Ethyl-3-(3-methoxyphenyl)azepan-1-yl)ethyl)morpholine], the Ki is no less than 500 nM.

For `CCC1(c2cccc(O)c2)CCCCN(CCO)C1` (stereo not shown) [Example 10, 3-(3-ethyl-1-(2-hydroxyethyl)azepan-3-yl)phenol], the “μ and σ1 dual binding” value was “++”.

`CCOCCN1CCCCC(CC)(c2cccc(N)c2)C1` (stereo not shown) [Example 22, 3-[1-(2-Ethoxyethyl)-3-ethylazepan-3-yl]aniline] came in with a Ki of no less than 500 nM.

Consider `CCOCCN1CCCC[C@](CC)(c2cccc(O)c2)C1` (stereo in doubt) [Example 21, (R)-3-(1-(2-ethoxyethyl)-3-ethylazepan-3-yl)phenol], for which the “μ and σ1 dual binding” value is “++”.

On to `CCOCCN1CCCCC(CC)(c2cccc(NS(C)(=O)=O)c2)C1` (stereo not shown) [Example 23, N-{3-[1-(2-Ethoxyethyl)-3-ethylazepan-3-yl]phenyl}methanesulfonamide], for which the Ki was no less than 500 nM.

Turning to `CCC1(c2cccc(O)c2)CCCCN(CCOC2CC2)C1` (stereo not shown) [Example 18, 3-(1-(2-cyclopropoxyethyl)-3-ethylazepan-3-yl)phenol], the “μ and σ1 dual binding” value is given as “++”.

Take `CCOCCN1CCCC[C@@](CC)(c2cccc(O)c2)C1` (stereo in doubt) [Example 20, (S)-3-(1-(2-ethoxyethyl)-3-ethylazepan-3-yl)phenol]: the “μ and σ1 dual binding” value was “++”.

Regarding `CCC1(c2cccc(O)c2)CCCCN(CCN2CCOCC2)C1` (stereo not shown) [Example 8, 3-(3-ethyl-1-(2-morpholinoethyl)azepan-3-yl)phenol], the “μ and σ1 dual binding” value is “++”.

Consider `CCC1(c2cccc(OC)c2)CCCCN(CCN2CCN(C)CC2)C1` (stereo not shown) [Example 1, 3-Ethyl-3-(3-methoxyphenyl)-1-(2-(4-methylpiperazin-1-yl)ethyl)azepane], for which the Ki is no less than 500 nM.

As to `CCC1(c2cccc(O)c2)CCCCN(CCN2CCN(C)CC2)C1` (stereo not shown) [Example 6, 3-(3-Ethyl-1-(2-(4-methylpiperazin-1-yl)ethyl)azepan-3-yl)phenol], the “μ and σ1 dual binding” value is “++”.

For `CCC1(c2cccc(O)c2)CCCCN(CCN2CCN(c3ccccc3)CC2)C1` (stereo not shown) [Example 7, 3-(3-ethyl-1-(2-(4-phenylpiperazin-1-yl)ethyl)azepan-3-yl)phenol], the “μ and σ1 dual binding” value is “++”.

`CCC1(c2cccc(O)c2)CCCCN(CC(=O)N2CCOCC2)C1` (stereo not shown) [Example 16, 2-(3-ethyl-3-(3-hydroxyphenyl)azepan-1-yl)-1-morpholinoethanone] returned a Ki of no less than 500 nM.

For the compound `CCC1(c2cccc(O)c2)CCCCN(CCOCC(C)(C)O)C1` (stereo not shown) [Example 19, 3-(3-ethyl-1-(2-(2-hydroxy-2-methylpropoxy)ethyl)azepan-3-yl)phenol], the “μ and σ1 dual binding” value is on record as “++”.

Regarding `CCOCCN1CCCCC(CC)(c2cccc(NS(=O)(=O)C(C)C)c2)C1` (stereo not shown) [Example 24, N-{3-[1-(2-Ethoxyethyl)-3-ethylazepan-3-yl]phenyl}propane-2-sulfonamide], the Ki was no less than 500 nM.
